Source: patent US7803930B2, “Antisense modulation of apolipoprotein B-expression” (Isis Pharmaceuticals, Inc., priority 2002, dated 2010)
Like-named read-outs stand apart in the source and are kept apart here. In the oligonucleotide strings, read from the 5' end, every base follows the letter of its sugar. An asterisk marks phosphorothioate; unmarked linkages are phosphodiester. Other units and linkages are bracketed, terminal groups are in braces. A string of capitals states the bases alone. e = 2'-O-(2-methoxyethyl) (MOE); [5mC] = 5-methylcytosine; d = 2'-deoxy (DNA)

Legend:
[1] = ob/ob mice (Example 50): cholesterol, lipid, triglyceride, liver enzyme and glucose levels; format: in vivo, mouse; details: high fat high cholesterol diet, 50 mg/kg i.p. twice a week, six weeks
Outline: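 Ob/ob mice on 60% kcal fat diet with 0.15% cholesterol received 50 mg/kg oligonucleotide i.p. twice weekly for six weeks, with saline and control oligonucleotides.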

PTEN = assay: ob/ob mice (Example 50): PTEN levels; format: in vivo, mouse; details: high fat high cholesterol diet, 50 mg/kg i.p. twice a week, six weeks
Procedure: Ob/ob mice receiving a high fat, high cholesterol diet (60% kcal fat supplemented with 0.15% cholesterol) were treated with one of several oligonucleotides to evaluate their effect on apolipoprotein B-related phenotypic endpoints in ob/ob mice. After overnight fasting, mice from each group were dosed intraperitoneally twice a week with 50 mg/kg of ISIS 147483 (SEQ ID NO: 79), or 147764 (SEQ ID NO: 109), or the controls ISIS 116847 (SEQ ID NO: 857), or 141923 (SEQ ID NO: 858), or saline for six weeks. At study termination and forty eight hours after the final injections, animals were sacrificed and evaluated for target mRNA levels in liver, cholesterol and triglyceride levels, liver enzyme levels, serum glucose levels, and PTEN levels.

[2] = format: in vivo, mouse; details: for Cholesterol Levels / Glucose Levels / Lipoprotein Levels HDL / Lipoprotein Levels LDL / Lipoprotein Levels VLDL: ApoE knockout mice, high fat diet, six weeks; for Liver Enzyme Levels ALT / Liver Enzyme Levels AST: mouse, in vivo, ip
Description: Female ApoE knockout mice ranged in age from 5 to 7 weeks and were placed on a normal diet for 2 weeks before study initiation. ApoE knockout mice were then fed ad libitum a 60% fat diet, with 0.15% added cholesterol to induce dyslipidemia and obesity. Control animals were maintained on a high-fat diet with no added cholesterol. […]
At study termination and forty eight hours after the final injections, animals were sacrificed and evaluated for target mRNA levels in liver by RT-PCR methods verified by Northern Blot analysis, glucose levels, cholesterol and lipid levels by HPLC separation methods and triglyceride and liver enzyme levels (performed by LabCorp Preclinical Services; San Diego, Calif.).
Data are normalized to saline controls.

[3] = system: human apolipoprotein B mRNA; assay: Transgenic mice dosing study (Example 52): human apolipoprotein B mRNA in liver; format: in vivo, human transgene in mouse; details: for % Inhibition, human apolipoprotein B mRNA: liver, 12 weeks
Procedure: A long-term study of inhibition of human apolipoprotein B by ISIS 301012 in C57BL/6NTac-TgN(APOB100) mice (Taconic, Germantown, N.Y.) was conducted for a 3 month period. Mice were dosed intraperitoneally twice a week with 10 or 25 mg/kg ISIS 301012 (SEQ ID No: 247) for 12 weeks. Saline-injected animals served as controls. Each treatment group comprised 4 animals.
The study was terminated forty eight hours after the final injections in the eighth week of treatment, when animals were sacrificed and evaluated for target mRNA levels in liver, apolipoprotein B protein levels in liver and serum cholesterol and liver enzyme levels. In addition, the expression of endogenous mouse apolipoprotein B levels in liver was measured to evaluate any effects of ISIS 301012 on mouse apolipoprotein B mRNA expression.
Human and mouse apolipoprotein B mRNA levels in livers of animals treated for 12 weeks were measured by real-time PCR as described herein. Each result represents the average of data from 4 animals.

apolipoprotein B protein = assay: Apolipoprotein B protein in primary Cynomolgous monkey hepatocytes, immunoblot; format: cell-based
Procedure: Additionally, protein was isolated from oligonucleotide-treated primary Cynomolgous monkey hepatocytes and subjected to immunoblot analysis to further assess apolipoprotein B protein expression. Immunoblotting was performed as described herein, using an antibody to human apolipoprotein B protein (US Biologicals, Swampscott, Mass.).

147764 (eG*eT*e[5mC]*e[5mC]*e[5mC]*dT*dG*dA*dA*dG*dA*dT*dG*dT*d[5mC]*eA*eA*eT*eG*e[5mC]) [compound 147764]
Glucose [1]: 209.2 mg/dL
Lipoproteins CHOL [1]: 286.3 mg/dL
Lipoproteins TRIG [1]: 101.2 mg/dL
Liver Enzymes ALT [1]: 835.0 IU/L
Liver Enzymes AST [1]: 406.5 IU/L
glucose, cholesterol, and triglyceride levels [1]: able to lower
mRNA % control PTEN (PTEN): 115.3 % control

GTCCCTGAAGATGTCAATGC (2'-MOE gapmer, further chemistry not given here) [ISIS 147764]
Cholesterol Levels ([2]; 5 mg/kg i.p. every three days): 1630 mg/dL
Glucose Levels ([2]; 5 mg/kg i.p. every three days): 195 mg/dL
Lipoprotein Levels HDL ([2]; 5 mg/kg i.p. every three days): 49 mg/dL
Lipoprotein Levels LDL ([2]; 5 mg/kg i.p. every three days): 475 mg/dL
Lipoprotein Levels VLDL ([2]; 5 mg/kg i.p. every three days): 1111 mg/dL
Cholesterol Levels ([2]; 25 mg/kg i.p. every three days): 1750 mg/dL
Glucose Levels ([2]; 25 mg/kg i.p. every three days): 209 mg/dL
Lipoprotein Levels HDL ([2]; 25 mg/kg i.p. every three days): 62 mg/dL
Lipoprotein Levels LDL ([2]; 25 mg/kg i.p. every three days): 500 mg/dL
Lipoprotein Levels VLDL ([2]; 25 mg/kg i.p. every three days): 1194 mg/dL
Cholesterol Levels ([2]; 50 mg/kg i.p. every three days): 1490 mg/dL
Glucose Levels ([2]; 50 mg/kg i.p. every three days): 191 mg/dL
Lipoprotein Levels HDL ([2]; 50 mg/kg i.p. every three days): 61 mg/dL
Lipoprotein Levels LDL ([2]; 50 mg/kg i.p. every three days): 325 mg/dL
Lipoprotein Levels VLDL ([2]; 50 mg/kg i.p. every three days): 1113 mg/dL
Liver Enzyme Levels ALT ([2]; 5 mg/kg): 48 IU/L
Liver Enzyme Levels AST ([2]; 5 mg/kg): 50 IU/L
Liver Enzyme Levels ALT ([2]; 25 mg/kg): 59 IU/L
Liver Enzyme Levels AST ([2]; 25 mg/kg): 60 IU/L
Liver Enzyme Levels ALT ([2]; 50 mg/kg): 87 IU/L
Liver Enzyme Levels AST ([2]; 50 mg/kg): 85 IU/L

ISIS 301012: SEQ ID NO: 247, antisense oligonucleotide targeted to human apolipoprotein B (antisense GCCTCAGTCTGCTTCGCACC; chemistry not given here)
reduction of human apolipoprotein B mRNA in liver ([3]; 12 weeks of treatment): ≤ 75%
% Inhibition, human apolipoprotein B mRNA ([3]; 10 mg/kg i.p. twice a week): 65%
% Inhibition, human apolipoprotein B mRNA ([3]; 25 mg/kg i.p. twice a week): 75%
apolipoprotein B expression (immunoblot) (apolipoprotein B protein): substantial reduction
